# Measured values: article PMC8868285, “Pharmacological Inhibition of Epac1 Averts Ferroptosis Cell Death by Preserving Mitochondrial Integrity” (Antioxidants, 2022)
# Assays:
# [1] = tested on: HT-22 cells; test: MTT cell viability assay; format: cell-based, mouse
# Protocol: (§1) Cell viability and metabolic activity of cells was first assessed using a colorimetric 3-(4,5-dimethylthiazol-2-yl)-2,5-diphenyltetrazolium Bromide (MTT) (Sigma–Aldrich Chemie GmbH, Steinheim, Germany, #M5655) reduction assay. Cells in a 96-well plate format (8–10,000 cells/well) were incubated with the MTT solution (0.5 mg/mL) for a maximum of 1 h at 37 °C. Afterward, the MTT-containing solution was entirely removed, and the 96-well plate was incubated at −80 °C for at least 2 h. To allow formazan to uniformly disperse in the medium, dimethyl sulfoxide (DMSO) (Sigma–Aldrich Chemie GmbH, Steinheim, Germany, #D8418, Lot# SHBH9942) was administered to the cells for 1 h at 37 °C with continuous shaking. The absorbance values were determined by Synergy™H1 (Bad Friedrichshall, Germany) Hybrid MultiMode Reader at 570 nm with a 630 nm reference filter. The absorbance values of untreated healthy cells or cells treated with DMSO 1% (used as a solvent for various pharmacological applications) were regarded as 100% of cell viability. […] HT-22 cells were treated with the following conditions: control condition (solvent), drug of interest, erastin, and pre- or co-treatment with erastin and drug of interest. Cells as appropriate were pre-treated for 30 min with the drug of interest before the addition of erastin. xCELLigence ®RTCA MP system (ACEA BIO, Amsterdam, The Netherlands) was used to measure cell impedance in real time. The xCELLigence ®RTCA MP system is a label-free real-time cell-based assay, suitable for continuous monitoring of alteration/modifications of the morphology of cells. Continuous cell monitoring was performed by using an E-plate 96 and the cellular impedance or cell resistance was assessed every 15 min for 24 h.
# [2] = tested on: retinal glial cells (RGC); set-up: method as in PMID 31918438; conditions: cited from earlier work
# [3] = tested on: HT-22 cells; test: xCELLigence real-time cell impedance measurement; format: cell-based, mouse; conditions: erastin alone, dose response
# Protocol: as §1, with “Cells as appropriate were pre-treated for 30 min with the drug of interest before the addition of erastin. xCELLigence ®RTCA MP system (ACEA BIO, Amsterdam, The Netherlands) was used to measure cell impedance in real time. The xCELLigence ®RTCA MP system is a label-free real-time cell-based assay, suitable for continuous monitoring of alteration/modifications of the morphology of cells.” left out
# [4] = tested on: HT-22 cells; test: Brightfield images of cell morphology; format: cell-based, mouse
# [5] = tested on: HT-22 cells; test: Mitochondrial morphology (MitoTracker Deep Red, categories I-III); format: cell-based, mouse; conditions: erastin 1 μM alone
# Protocol: Mitochondrial morphology was assessed using imaging of HT-22 cells stained with MitoTracker™Deep Red FM (Invitrogen, Oregon City, OR, USA, #M22426). Cells were treated with either erastin 1 µM, CE3F4 100 µM, or co-treated with erastin 1 µM and CE3F4 100 μM for 18 h. After the treatment, cells were incubated with 200 nM MitoTracker™Deep Red FM for 30 min at 37 °C. Untreated cells were included as controls. 4% paraformaldehyde (PFA) was used for fixation and detection of the MitoTracker fluorescence was achieved by 620 nm (excitation) and 700 ± 75 nm (detection). 500 cells per condition were counted and grouped into three different categories, based on their mitochondrial morphology/shape. The analysis and categorization of mitochondria was done by an investigator without previous knowledge of the various experimental conditions. Category I included healthy cells with mitochondria that form an elongated tubular network that is distributed equally throughout the cytosol. It could also include short mitochondria, but distributed in the cytosol. On the other hand, Category II included cells which contained large, and fragmented/granulated mitochondria around the nucleus. […] Category III represented damaged and dying cells with observed small rounded mitochondria of varying sizes and in proximity to the nucleus.. At least three independent experiments were performed.
# [6] = tested on: HT-22 cells; test: Extracellular flux analysis (Seahorse), oxygen consumption rate; format: cell-based, mouse
# Protocol: Cellular Oxygen Consumption Rate (OCR) was measured by using an XFe96 extracellular flux analyzer (Seahorse Bioscience, Billerica, MA, USA) which also entailed the mitochondrial stress test as described previously. HT-22 cells (10,000 cells/well) were seeded onto the XFe96-well cell culture microplate and incubated at 37 °C, 5% CO2. 24 h before the assay, the growth medium was replaced with a fresh medium containing either DMSO 1%, erastin 1 µM, CE3F4 alone, ESI-05 alone or a co-treatment of erastin with either CE3F4 or ESI-05. Cells in 180 μL of assay non-buffered DMEM medium supplemented with 2 mM glutamine, 4.5 g/L glucose and 1 mM pyruvate, pH 7.35 were incubated for 1 h in a CO2 free incubator at 37 °C. Basal respiration was measured before injecting the inhibitors that included; oligomycin (4 μM; port A)—an ATP synthase inhibitor; 2,4-dinitrophenol (DNP) (Sigma–Aldrich Chemie GmbH, Steinheim, Germany, #34334) (50 μM; port B)—a mitochondrial oxidative phosphorylation uncoupler; and rotenone (Sigma–Aldrich Chemie GmbH, Steinheim, Germany, #R8875) together with antimycin A (Sigma–Aldrich Chemie GmbH, Steinheim, Germany, #A8674) 0.1 μM and 1 μM; port C)—complex I and complex III inhibitors. By using the BCA assay, OCR measurements were normalized to the protein amount in every well. Three independent experiments with six wells per condition were performed, and a one-way ANOVA test was used to determine statistical significance among different groups.
# [7] = tested on: HT-22 cells; test: Soluble ROS, CM-DCF FACS; format: cell-based, mouse
# Protocol: Soluble ROS was evaluated by CM-DCF fluorescent dye (Invitrogen, Oregon City, OR, USA). CM-DCF passively diffuses into cells, and reacts with glutathione and other thiols following cleavage by intracellular esterases, which in turn exposes the thiol-reactive chloromethyl group. The oxidation that follows results in a fluorescent adduct that is ensnared within the cell. The higher the fluorescence, the more cellular ROS is produced in the cells.
# [8] = tested on: HT-22 cells; test: Lipid peroxidation, BODIPY FACS; conditions: erastin 1 μM alone, 4 h
# Protocol: (§2) Flow cytometry analysis using the CytoFLEXS benchtop flow cytometer (Beckman Coulter Life Sciences, Indianapolis, IN, USA) was used to evaluate intracellular parameters that are associated with not only oxidative stress but also mitochondrial dysfunction, and cell death. HT-22 cells (40,000 cells/well) seeded in 24-well plates were treated with various conditions. Treatment groups included: control condition (DMSO 1%), erastin 1 µM or 1.5 µM, CE3F4 100 µM, and co-treatment of erastin and CE3F4. Three separate wells were analyzed for each condition and the same number of counts (10,000/well) were measured by flow cytometry. At least three independent experiments were performed, and the Kaluza Analysis 1.5 software was employed for quantification of data.
# The staining dye BODIPY 2 μM (Invitrogen, Karlsruhe, Germany, # D3861, Lot # 1890330) was used to estimate lipid peroxidation. Erastin treatment was done for 4 h. HT-22 cells were then stained for 30 min at RT, followed by a one-time wash with PBS and finally analyzed. Fluorescence excitation and detection were done at 488 nm and 530 nm respectively.
# [9] = tested on: HT-22 cells; test: Mitochondrial superoxide, MitoSOX FACS
# Protocol: as §2
# MitoSOX dye (Invitrogen, Oregon City, OR, USA, #M36008, Lot#1924466) was used to evaluate mitochondrial ROS. The MitoSOX dye is able to permeate live cells and also selectively target mitochondria where it is swiftly oxidized by superoxides but not by other reactive oxygen species. […] Incubation of HT-22 cells with MitoSOX™ 1.25 μM dye was done for 30 min at 37 °C. Fluorescence excitation and detection were done at 488 nm and 690/50 nm respectively.
# [10] = tested on: HT-22 cells; test: Mitochondrial membrane potential, TMRE FACS
# Protocol: as §2
# Staining with TMRE™ dye (tetramethylrhodamine-ethyl ester; Invitrogen, Oregon City, OR, USA, #T669) was used to determine loss of mitochondrial membrane potential (MMP) (ΔΨm). […] Collected cells were incubated for 20 min with TMRE 0.2 μM at 37 °C. Fluorescence excitation and detection were done at 488 nm 690/50 nm respectively.
# [11] = tested on: HT-22 cells; test: Cell death assessment, FACS analysis of PI staining; conditions: erastin 1 μM alone
# Protocol: as §2
# The amount of cell death after stimulation with erastin for 16–17 h was assessed by incubating trypsonized HT-22 cell suspension with propidium iodide (PI) (Invitrogen, Oregon City, OR, USA, #V13242, Lot #2008168) in a binding buffer. Incubation with the dye was for 30 min at RT. Fluorescence was detected at 494/518 and 535/617 for FITC and PI respectively.
# [12] = tested on: isolated mitochondria from HT-22 cells; test: High-resolution respirometry (Oroboros) of isolated mitochondria; set-up: species or system mouse
# Protocol: Mitochondria were isolated from harvested HT-22 cells (4–8 × 10^7 cultivated in T75 flasks) using a semi-automated pump-controlled cell rupture system (PCC) (0.71 mL/min) with syringes (SGE, Trajan© Scientific, Ringwood, Australia) attached to a cell homogenizer (Isobiotech, EMBL, Heidelberg, Germany) (bead size of 10 μm suitable for HT-22 cells) and superimposed on a pump (ProSense B.V, Oosterhout, The Netherlands, #NE1000). Collected samples were centrifuged at 800 rpm for 10 min at 4 °C. The supernatant was further centrifuged at 9000× g for 10 min at 4 °C. The resulting pellet was the crude mitochondria. Finally, the mitochondria were suspended in an isolation buffer (HEPES 20 mM, sucrose 250 mM EDTA 3 mM, pH 7.5) for subsequent experiments. The whole procedure was executed on ice.
# The protein concentration of isolated mitochondria was determined using the Pierce™ BCA Protein Assay Kit (Pierce™ BCA Protein Assay Kit, Thermo Scientific, Rockford, IL, USA, #23225). Respiration of the isolated mitochondria from HT-22 cells was analyzed using the high-resolution respirometry oxygraph O2K (Oroboros Systems, Innsbruck, Austria). The isolated mitochondria (200 μg) prepared as previously described, were treated with either CE3F4, ESI-05, ethanol, or DMSO as appropriate for 25 min, followed by mitochondrial respiration measurements. Mitochondrial state 1 was determined by continuous stirring at 750 rpm in 1 mL of MiR05 buffer (MgCl2 3 mM, lactobionic acid 60 mM, EGTA 0.5 mM taurine 20 mM, KH2PO4 10 mM, D-Sucrose 110 mM, HEPES 20 mM, BSA, essential fatty acid-free1 g/L, pH adjusted to 7.4). DatLab software (Oroboros Systems, Innsbruck, Austria) was used to record real-time oxygen flux per tissue mass (pmol O2. s^−1 × mg^−1) at 37 °C and to perform oxygen polarography. States were described as, State 2: a non-phosphorylating respiration state which was assessed by addition of complex-I linked substrates, 5 mM pyruvate (Sigma–Aldrich Chemie GmbH, Steinheim, Germany #P-2256), and 2 mM malate (Sigma–Aldrich Chemie GmbH, Steinheim, Germany, #374318); State 3: the oxidative-phosphorylation capacity (OXPHOS) state, of complex-I linked activity or basal respiration was achieved by adding a saturating concentration of 0.8 mM ADP (Sigma–Aldrich Chemie GmbH, Steinheim, Germany, #A5285), this allowed for calculation of ADP-coupled repiration; State 4: Achieved by subsequent addition of oligomycin 0.1 μM/mL (Sigma–Aldrich Chemie GmbH, Steinheim, Germany, #O4876) following state 3, oligomycin blocks the ATP-synthase, thereby inhibiting proton passage; State 3U: Was assessed by incremental steps of 1 μM addition of FCCP—theprotonophore carbonyl cyanide 4-(trifluoromethoxy) phenylhydrazone (Sigma–Aldrich Chemie GmbH, Steinheim, Germany, #C2920), this allowed the calculation of the reserve capacity of the Electron Transport Chain (ETC); Finally, sodium dithionite (DTT, Sigma–Aldrich Chemie GmbH, Steinheim, Germany, #15,795-3) was added to reduce all residual oxygen that was present in the chamber and to calibrate the oxygen content in the chamber. The O2 slope (pmol × (mL/s)) of isolated mitochondria was the oxygen concentration and also the initial derivate of the oxygen concentration—a derivative of oxygen consumption. Measurements were recorded in intervals of 2 s by using a background correction after calibration of the polarographic oxygen sensors.
# [13] = tested on: Epac2; conditions: ESI-05, Epac2 inhibitor; cited from earlier work
# [14] = tested on: secondary brain injury induced by intracerebral hemorrhage; set-up: method as in PMID 30607901; conditions: cited from earlier work
# [15] = tested on: traumatic brain injury; set-up: method as in PMID 29740274; conditions: cited from earlier work
# [16] = tested on: Epac; set-up: method as in BioLog, Cat.No. C 041; conditions: no literature reference printed; ref BioLog, Cat.No. C 041; cited from earlier work
compound,measurement,setting,value
CC(C)(C)c1cc(C(=O)/C(C#N)=N/Nc2cccc(Cl)c2)no1 [ESI-09],neuroprotection against erastin-induced ferroptosis (MTT),"[1]; ESI-09, 30 μM",dose-dependent neuroprotection
same,effect on RGC,[2],neuroprotective
CCOc1ccccc1-n1c(C(C)N2CCN(C(=O)COc3ccc(Cl)cc3)CC2)nc2ccccc2c1=O (stereo not shown) [erastin],cell death (MTT cell viability),"[1]; erastin alone, dose response",dose-dependent cell death
same,cell death (real-time cell impedance),[3],dose-dependent cell death
same,cell morphology,[4]; erastin 1 μM alone,marked alteration in cell morphology
same,mitochondrial morphology,[5],induced pronounced mitochondrial fragmentation
same,mitochondrial respiration (OCR),[6]; erastin 1 μM vs untreated or solvent-treated controls,significant decrease in mitochondrial respiration
same,ROS level (CM-DCF),[7]; erastin 1 μM alone,significantly increased
same,ROS level (CM-DCF),[7]; erastin 1.5 μM alone,significantly increased
same,lipid peroxidation,[8],increased
same,mitochondrial superoxide levels,[9]; erastin 1 μM alone,significant increase and shift towards high ROS levels
same,mitochondrial superoxide levels,[9]; erastin 1.5 μM alone,significant increase and shift towards high ROS levels
same,mitochondrial membrane potential (ΔΨm),[10]; erastin 1 μM alone,significant loss of ΔΨm
same,mitochondrial membrane potential (ΔΨm),[10]; erastin 1.5 μM alone,significant loss of ΔΨm
same,cell death (PI staining),[11],augmented cell death
CO[C@@H]1[C@@H]2OP(=O)(OCOC(C)=O)OC[C@H]2O[C@H]1n1c(Sc2ccc(Cl)cc2)nc2c(N)ncnc21 (stereo partly shown) [8-pCPT-2-O-Me-cAMP-AM],effect on RGC,[2],neurotoxic effects
Cc1ccc(S(=O)(=O)c2c(C)cc(C)cc2C)cc1 [ESI-05],neuroprotection against erastin-induced ferroptosis (MTT),[1]; 100 μM ESI-05 with lower concentrations of erastin,did not mediate neuroprotection
same,neuroprotection against erastin-induced ferroptosis (MTT),[1]; ESI-05 3–30 μM,did not mediate neuroprotection
same,neuroprotection against erastin-induced ferroptosis (bright-field microscopy images),[4]; ESI-05 30 μM + erastin 1 μM,did not mediate neuroprotection
same,respiration rate after inhibition of ETC complex V (state 4),[12]; 10 μM ESI-05,significantly increased
same,mitochondrial respiration,[12]; ESI-05 30 μM,does not affect mitochondria respiration
same,mitochondrial respiration (OCR),[6]; 30 μM ESI-05 + erastin 1 μM vs erastin alone,did not induce any significant difference
same,IC50,[13],400 nM
same,secondary brain injury induced by intracerebral hemorrhage,[14],suppressed secondary brain injury
same,neural cell apoptosis after traumatic brain injury,[15],decreased neural cell apoptosis
same,neurological deficits after traumatic brain injury,[15],improved other neurological deficits
CO[C@@H]1[C@@H]2OP(=O)(O)OC[C@H]2O[C@H]1n1c(Sc2ccc(Cl)cc2)nc2c(N)ncnc21 [8-PCPT-2-O-Me-cAMP],neuroprotection against erastin-induced ferroptosis (MTT),[1]; 8-pCPT 10–100 μM,did not mediate neuroprotection
same,AC50,[16],1800 nM
